Nine compounds from patent US9987256B2, “CFTR corrector for the treatment of genetic disorders affecting striated muscle” (UNIVERSITA' DEGLI STUDI DI PADOVA, priority 2012, dated 2018) can be followed below.

Assay [1] has as its target T1, R164H mutant of SERCA1 (Bos taurus, UniProt Q0VCY0, R164H).
T1 construct: expressed in transfected cells; host or cells: HEK 293
Nature of the assay: Western blot rescue of R164H mutant of SERCA1 in HEK293 cells. It is filed as cell-based, bovine. The conditions noted are these: HEK293, 24 hours, relative to wild type. The method, then: In FIG. 3 are reported the results obtained with HEK 293 cells expressing the R164H mutant of SERCA1 treated for 24 hours with either Compound C 5 μM, Compound B 10 μM, Compound E 10 μM, compound F 10 μM, Compound A 2 μM, compound D 10 μM, MG132 (proteasome inhibitor) 10 μM, used as positive control or the vehicle DMSO at 1‰ concentration, used as negative control. At the end of treatments, cells were lysed and total protein resolved by SDS-PAGE. Western blotting analysis has been performed by using SERCA1 specific antibody and β-actin specific antibody, to normalize loaded proteins. In the upper panel of FIG. 3 is reported a representative Western blotting experiment. The expression of SERCA1 in different samples has been determined by densitometric analysis and indicated as percentage of SERCA 1 content present in wild type expressing cells treated with DMSO.
In FIG. 10 is reported the content of SERCA1 protein present in HEK 293 cells transfected with the R164H mutant of SERCA1 and treated for 24 hours with either Compound H 15 μM, Compound I 10 μM, compound Q 10 μM, Compound R 5 μM, Compound S 15 μM, Compound T 15 μM or the vehicle DMSO at 1‰ concentration, used as negative control. Cells expressing the wild type form of SERCA1 have also been used for comparison. At the end of treatments, cells were lysed and total protein resolved by SDS-PAGE. Western blotting analysis has been performed by using SERCA1 specific antibody and β-actin specific antibody, to normalize loaded proteins. The expression of SERCA1 in different samples has been determined by densitometric analysis and indicated as percentage of SERCA 1 content present in wild type expressing cells. The graph of FIG. 10 reports the average values (+/− standard error) of at least three independent experiments.
Background: In western blotting, separated proteins are transferred to a membrane and probed.

The target in assay [2] is T2, R98H mutant of alpha-sarcoglycan (Homo sapiens, UniProt Q16586, R98H).
T2 construct: expressed in transfected cells; host or cells: HEK293
T2 sequence (Q16586 24-387 R98H): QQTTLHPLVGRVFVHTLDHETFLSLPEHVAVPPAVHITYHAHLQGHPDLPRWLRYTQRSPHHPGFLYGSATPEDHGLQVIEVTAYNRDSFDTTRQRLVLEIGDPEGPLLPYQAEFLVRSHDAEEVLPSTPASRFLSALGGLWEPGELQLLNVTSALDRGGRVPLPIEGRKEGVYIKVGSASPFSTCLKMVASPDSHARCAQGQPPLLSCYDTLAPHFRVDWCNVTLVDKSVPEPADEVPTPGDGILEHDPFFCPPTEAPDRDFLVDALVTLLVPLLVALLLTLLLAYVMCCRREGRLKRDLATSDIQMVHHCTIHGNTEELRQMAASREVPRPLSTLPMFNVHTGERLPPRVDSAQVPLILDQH
Briefly: Confocal immunofluorescence, membrane localization of R98H alpha-sarcoglycan in HEK293 cells. It is filed as cell-based. The conditions noted are these: HEK293, 24 hours. Here is the method:
(§1) The cellular localization of either the V247M or R98H mutants, upon corrector treatments, has been verified by confocal immunofluorescence.
In the experiment reported in FIG. 8, HEK 293 cells expressing the R98H mutant have been treated for 24 hours with either Compound H (15 μM), Compound I (10 μM), Compound Q (10 μM), Compound A (2 μM) or the vehicle DMSO at 1% o concentration used as negative control. By comparison, cells expressing the wild type form of α-sarcoglycan have also been used. At the end of treatments, not permeabilized cells were incubated with a monoclonal antibody specific for an extracellular epitope of α-sarcoglycan in order to mark only the membrane resident α-sarcoglycan.
In the experiment reported in FIG. 9, HEK 293 cells expressing the R98H mutant have been treated for 24 hours with either two different concentration of Compound R (2.5 and 5 μM), or the vehicle DMSO at 1‰ concentration used as negative control. By comparison, cells expressing the wild type form of α-sarcoglycan have also been used. At the end of treatments, not permeabilized cells were incubated with a monoclonal antibody specific for an extracellular epitope of α-sarcoglycan in order to mark only the membrane resident α-sarcoglycan.

The target of assay [3] is T3, V247M mutant of alpha-sarcoglycan (Homo sapiens, UniProt Q16586, V247M).
T3 construct: expressed in transfected cells; host or cells: HEK 293
T3 sequence (Q16586 24-387 V247M): T2 sequence (Q16586 24-387 R98H) with H75R, V224M
Nature of the assay: Confocal immunofluorescence, membrane localization of V247M alpha-sarcoglycan in HEK293 cells. Conditions: FIG. 2; HEK293, 24 hours; E 10 μM, D 10 μM, MG132 positive control; not permeabilized cells. Format: cell-based. Here is the method:
as §1
In the experiment reported in FIG. 2, HEK 293 cells expressing the V247M mutant have been treated for 24 hours with either Compound E (10 μM) or Compound D (10 μM), MG132 (positive control) or DMSO at 1‰ concentration (negative control). At the end of treatments, not permeabilized cells were incubated with a monoclonal antibody specific for an extracellular epitope of α-sarcoglycan in order to mark only the membrane resident α-sarcoglycan. By comparison, cells expressing the wild type form of α-sarcoglycan have also been used.

Where [4] appears, read: FIG. 10, H 15 μM, I 10 μM, Q 10 μM, R 5 μM, S 15 μM, T 15 μM.
[5] abbreviates: FIG. 8, H 15 μM, I 10 μM, Q 10 μM, A 2 μM.
Setting [6] is: FIG. 3, C 5 μM, B 10 μM, E 10 μM, F 10 μM, A 2 μM, D 10 μM.

Changes are numbered by the printed parent chain.

T1 sequence (Q0VCY0 whole entry R164H): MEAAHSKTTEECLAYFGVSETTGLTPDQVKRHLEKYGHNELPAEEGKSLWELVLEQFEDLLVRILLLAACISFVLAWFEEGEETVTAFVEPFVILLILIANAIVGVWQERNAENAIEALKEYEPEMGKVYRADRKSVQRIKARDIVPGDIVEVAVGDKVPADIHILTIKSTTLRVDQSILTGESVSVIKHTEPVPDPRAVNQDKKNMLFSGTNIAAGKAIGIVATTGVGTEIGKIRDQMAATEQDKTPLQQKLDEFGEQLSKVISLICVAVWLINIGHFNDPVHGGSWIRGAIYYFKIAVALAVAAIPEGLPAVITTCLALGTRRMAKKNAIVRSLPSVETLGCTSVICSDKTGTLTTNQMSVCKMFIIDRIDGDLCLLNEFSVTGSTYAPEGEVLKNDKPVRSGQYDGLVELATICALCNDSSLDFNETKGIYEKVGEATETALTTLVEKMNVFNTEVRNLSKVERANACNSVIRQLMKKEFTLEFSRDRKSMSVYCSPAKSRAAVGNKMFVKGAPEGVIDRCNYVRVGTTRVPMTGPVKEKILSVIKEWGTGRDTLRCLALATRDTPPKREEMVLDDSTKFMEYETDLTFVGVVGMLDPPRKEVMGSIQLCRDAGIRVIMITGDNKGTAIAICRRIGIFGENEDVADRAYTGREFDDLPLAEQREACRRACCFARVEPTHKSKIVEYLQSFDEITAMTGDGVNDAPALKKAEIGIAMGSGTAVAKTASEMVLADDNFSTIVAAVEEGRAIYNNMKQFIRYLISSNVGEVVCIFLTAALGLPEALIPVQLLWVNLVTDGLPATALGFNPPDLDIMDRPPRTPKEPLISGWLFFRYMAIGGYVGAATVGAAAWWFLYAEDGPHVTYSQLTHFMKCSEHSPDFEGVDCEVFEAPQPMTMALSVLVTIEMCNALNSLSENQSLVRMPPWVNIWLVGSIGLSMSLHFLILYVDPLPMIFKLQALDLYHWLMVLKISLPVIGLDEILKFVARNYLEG

`CC(=O)c1cccc(Nc2nc(-c3sc(NC(=O)c4ccccc4)nc3C)cs2)c1` [Compound Q, N-(2-(3-acetylphenylamino)-4′-methyl-4,5′-bithiazol-2′-yl)-benzamide]: the “SERCA1 protein level (western blot, densitometry), rescue of R164H mutant” value (shortened to “SERCA1 protein level”) in assay [1] (setting [4]) is “promote the rescue”. In addition, the “plasma membrane localization of R98H alpha-sarcoglycan mutant” value in assay [2] (setting [5]) was “promote the correct membrane localization”. For the compound `C=Cc1ccc(-c2csc(Nc3ccccc3)n2)cc1` [Compound S, N-phenyl-4-(4-vinylphenyl)thiazol-2-amine], the “SERCA1 protein level” value in assay [1] (setting [4]) is listed as “promote the rescue”. In the case of `Cc1cc(C)c2c(C)cc(Nc3ccccc3)nc2c1` [Compound H, 4,5,7-trimethyl-N-phenylquinolin-2-amine], the “SERCA1 protein level” value in assay [1] (setting [4]) is “promote the rescue”. Besides, in assay [2] (setting [5]), the “plasma membrane localization of R98H alpha-sarcoglycan mutant” value is “promote the correct membrane localization”. `O=S(=O)(c1ccc(Cl)cc1)N1CCN(c2ccnc3cc(Cl)ccc23)CC1` [Compound F, 7-chloro-4-(4-(4-chlorophenylsulfonyl)piperazin-1-yl)quinoline]: in assay [1] (setting [6]), the “SERCA1 protein level” value is on record as “promote the rescue”. On to `Cc1cc(Nc2ccc(Br)cc2)nc2ccccc12` [Compound I, N-(4-bromophenyl)-4-methylquinolin-2-amine], for which the “SERCA1 protein level” value in assay [1] (setting [4]) is “promote the rescue”. In assay [2] (setting [5]), the “plasma membrane localization of R98H alpha-sarcoglycan mutant” value is “promote the correct membrane localization”. On to `COc1ccc(Cl)cc1Nc1nc(-c2sc(NC(=O)C(C)(C)C)nc2C)cs1` [Compound A, N-(2-(5-chloro-2-methoxyphenylamino)-4′-methyl-4,5′-bithiazol-2′-yl)pivalamide], for which the “SERCA1 protein level” value in assay [1] (setting [6]) is “promote the rescue”. Besides, the “plasma membrane localization of R98H alpha-sarcoglycan mutant” value in assay [2] (setting [5]) is given as “promote the correct membrane localization”.

Regarding `COc1ccc(Cl)cc1Nc1nc(-c2sc(NC(=O)c3ccccc3)nc2C)cs1` [Compound E, N-[2-(5-Chloro-2-methoxy-phenylamino)-4′-methyl-[4,5′]bithiazolyl-2′-yl]-benzamide], the “plasma membrane localization of V247M alpha-sarcoglycan mutant” value in assay [3] is reported as “promoted the correct plasma membrane localization”. Moreover, the “SERCA1 protein level” value in assay [1] (setting [6]) was “promote the rescue”. On to `COc1ccccc1Nc1nc(-c2sc(NC(=O)c3ccccc3)nc2C)cs1` [Compound R, N-(2-(2-methoxyphenylamino)-4′-methyl-4,5′-bithiazol-2′-yl)-benzamide], for which the “SERCA1 protein level” value in assay [1] (setting [4]) is recorded as “promote the rescue”. For the same compound, in assay [2] (FIG. 9, Compound R 2.5 and 5 μM), the “plasma membrane localization of R98H alpha-sarcoglycan mutant” value was “promoted the correct plasma-membrane localization”.

As for `COc1ccc2nc(Nc3nc(=O)c(C)c(C)[nH]3)nc(C)c2c1` [Compound T, 2-(6-methoxy-4-methylquinazolin-2-ylamino)-5,6-dimethylpyrimidin-4(1H)-one], the “SERCA1 protein level” value in assay [1] (setting [4]) was “promote the rescue”.
